{
  "source": "paper PMC5196235",
  "about": "(International Journal for Parasitology: Drugs and Drug …, 2016)",
  "key": {"Asu-ACR-16 receptor [1]": {"target": "T1, Asu-ACR-16 receptor (Ascaris suum, UniProt F1KYJ9)", "T1 sequence (F1KYJ9 1-504)": "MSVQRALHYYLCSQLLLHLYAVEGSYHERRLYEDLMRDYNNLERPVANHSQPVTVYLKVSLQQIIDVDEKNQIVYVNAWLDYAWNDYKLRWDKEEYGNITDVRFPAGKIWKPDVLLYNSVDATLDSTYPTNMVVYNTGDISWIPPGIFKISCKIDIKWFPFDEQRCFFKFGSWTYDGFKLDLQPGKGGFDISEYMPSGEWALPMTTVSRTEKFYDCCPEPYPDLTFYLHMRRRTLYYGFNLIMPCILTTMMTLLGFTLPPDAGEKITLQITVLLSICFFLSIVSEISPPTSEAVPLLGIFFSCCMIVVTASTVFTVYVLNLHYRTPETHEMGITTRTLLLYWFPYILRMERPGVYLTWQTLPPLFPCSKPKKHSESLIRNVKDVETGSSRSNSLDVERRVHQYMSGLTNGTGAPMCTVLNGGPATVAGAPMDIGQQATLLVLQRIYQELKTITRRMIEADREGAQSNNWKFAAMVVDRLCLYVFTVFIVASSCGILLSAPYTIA", "assay": "Two-electrode voltage clamp of Asu-ACR-16 expressed in Xenopus oocytes", "format": "cell-based", "conditions": "for effect at high concentration (response left out of the Hill fit): 30 μM 5-methylnicotine, 100 μM 6-methylnicotine, 300 μM homonicotine, 100 μM (S, R)-anabasine; for Hill slope (nH): Asu-ACR-16 in Xenopus oocytes, Hill equation fit, mean ± S.E.M., N = 5; for Emax: read-out: maximum response (Imax)"}, "Asu-ACR-16 receptor [2]": {"target": "T1, Asu-ACR-16 receptor", "conditions": "ref Abongwa et al., 2016; cited from earlier work"}},
  "note": "Where a name gives a salt, the structure may show the parent alone.",
  "data": [
    {"molecule": "Cc1cncc(C2CCCN2C)c1", "note": "(racemic) [5-methylnicotine, rac-5-methylnicotine]", "values": [
      {"measurement": "effect at high concentration (response left out of the Hill fit)", "setting": "Asu-ACR-16 receptor [1]", "value": "inhibitory effects at high concentrations"},
      {"measurement": "Hill slope (nH)", "setting": "Asu-ACR-16 receptor [1]", "value": "2.09 ± 0.14"}
    ]},
    {"molecule": "O=c1c(Br)ccc2n1C[C@@H]1CNC[C@H]2C1", "note": "[3-bromocytisine]", "values": [
      {"measurement": "sensitivity of the Asu-ACR-16 receptor to the agonist", "setting": "Asu-ACR-16 receptor [2]", "value": "sensitive"}
    ]},
    {"molecule": "CN1CCCC1c1ccc(N)nc1.Cl.Cl", "note": "(stereo not drawn) [6-AN, 5-(1-methyl-pyrrolidin-2-yl)-pyridin-2-ylamine dihydrochloride]", "values": [
      {"measurement": "Hill slope (nH)", "setting": "Asu-ACR-16 receptor [1]", "value": "10.10 ± 0.15"},
      {"measurement": "agonist activity on Asu-ACR-16 (inward current)", "setting": "Asu-ACR-16 receptor [1]; derivatives that elicited inward currents at 100 μM were classed as agonists", "value": "little agonist activity"},
      {"measurement": "Emax", "setting": "Asu-ACR-16 receptor [1]", "value": "6.29 ± 0.62", "unit": "%"}
    ]},
    {"molecule": "CN1CCC[C@H]1c1cncc(Br)c1", "note": "[(S)-5-bromonicotine]", "values": [
      {"measurement": "Hill slope (nH)", "setting": "Asu-ACR-16 receptor [1]", "value": "2.46 ± 0.21"}
    ]},
    {"molecule": "CN1CCC[C@H]1c1cccnc1", "note": "[(S)-nicotine, (−)-nicotine hydrogen tartrate salt]", "values": [
      {"measurement": "Hill slope (nH)", "setting": "Asu-ACR-16 receptor [1]", "value": "3.39 ± 0.36"},
      {"measurement": "sensitivity of the Asu-ACR-16 receptor to the agonist", "setting": "Asu-ACR-16 receptor [2]", "value": "sensitive"}
    ]},
    {"molecule": "C#Cc1cncc([C@@H]2CCCN2C)c1", "note": "[(S)—SIB 1508Y]", "values": [
      {"measurement": "Hill slope (nH)", "setting": "Asu-ACR-16 receptor [1]", "value": "0.94 ± 0.04"},
      {"measurement": "Emax", "setting": "Asu-ACR-16 receptor [1]", "value": "100 ± 4.36", "unit": "%"}
    ]},
    {"molecule": "CC(=O)OCC[N+](C)(C)C", "note": "[ACh, acetylcholine]", "values": [
      {"measurement": "Hill slope (nH)", "setting": "Asu-ACR-16 receptor [1]", "value": "2.93 ± 0.13"},
      {"measurement": "sensitivity of the Asu-ACR-16 receptor to the agonist", "setting": "Asu-ACR-16 receptor [2]", "value": "sensitive"}
    ]},
    {"molecule": "C[N+]1(C)CCN(c2ccccc2)CC1.[I-]", "note": "[DMPP, dimethyl-4-phenyllpiperazinium iodide]", "values": [
      {"measurement": "sensitivity of the Asu-ACR-16 receptor to the agonist", "setting": "Asu-ACR-16 receptor [2]", "value": "sensitive"}
    ]},
    {"molecule": "O=c1cccc2n1C[C@@H]1CNC[C@H]2C1", "note": "[cytisine]", "values": [
      {"measurement": "sensitivity of the Asu-ACR-16 receptor to the agonist", "setting": "Asu-ACR-16 receptor [2]", "value": "sensitive"}
    ]},
    {"molecule": "Clc1ccc(C2CC3CCC2N3)cn1", "note": "(stereo not drawn) [epibatidine]", "values": [
      {"measurement": "sensitivity of the Asu-ACR-16 receptor to the agonist", "setting": "Asu-ACR-16 receptor [2]", "value": "sensitive"}
    ]},
    {"molecule": "(±)-nornicotine", "values": [
      {"measurement": "Hill slope (nH)", "setting": "Asu-ACR-16 receptor [1]", "value": "3.25 ± 0.49"}
    ]},
    {"molecule": "anabasine [(S, R)-anabasine]", "values": [
      {"measurement": "effect at high concentration (response left out of the Hill fit)", "setting": "Asu-ACR-16 receptor [1]", "value": "inhibitory effect"}
    ]}
  ]
}
